In patent publication US7368137B2, “Smilagenin and its use” (priority 1999, dated 2008):

Columns and labels:
Progesterone receptor = biological target: T1, Progesterone receptor (Homo sapiens, UniProt P06401); test: Activity at steroid receptors: progesterone
T1 sequence (P06401 1-933): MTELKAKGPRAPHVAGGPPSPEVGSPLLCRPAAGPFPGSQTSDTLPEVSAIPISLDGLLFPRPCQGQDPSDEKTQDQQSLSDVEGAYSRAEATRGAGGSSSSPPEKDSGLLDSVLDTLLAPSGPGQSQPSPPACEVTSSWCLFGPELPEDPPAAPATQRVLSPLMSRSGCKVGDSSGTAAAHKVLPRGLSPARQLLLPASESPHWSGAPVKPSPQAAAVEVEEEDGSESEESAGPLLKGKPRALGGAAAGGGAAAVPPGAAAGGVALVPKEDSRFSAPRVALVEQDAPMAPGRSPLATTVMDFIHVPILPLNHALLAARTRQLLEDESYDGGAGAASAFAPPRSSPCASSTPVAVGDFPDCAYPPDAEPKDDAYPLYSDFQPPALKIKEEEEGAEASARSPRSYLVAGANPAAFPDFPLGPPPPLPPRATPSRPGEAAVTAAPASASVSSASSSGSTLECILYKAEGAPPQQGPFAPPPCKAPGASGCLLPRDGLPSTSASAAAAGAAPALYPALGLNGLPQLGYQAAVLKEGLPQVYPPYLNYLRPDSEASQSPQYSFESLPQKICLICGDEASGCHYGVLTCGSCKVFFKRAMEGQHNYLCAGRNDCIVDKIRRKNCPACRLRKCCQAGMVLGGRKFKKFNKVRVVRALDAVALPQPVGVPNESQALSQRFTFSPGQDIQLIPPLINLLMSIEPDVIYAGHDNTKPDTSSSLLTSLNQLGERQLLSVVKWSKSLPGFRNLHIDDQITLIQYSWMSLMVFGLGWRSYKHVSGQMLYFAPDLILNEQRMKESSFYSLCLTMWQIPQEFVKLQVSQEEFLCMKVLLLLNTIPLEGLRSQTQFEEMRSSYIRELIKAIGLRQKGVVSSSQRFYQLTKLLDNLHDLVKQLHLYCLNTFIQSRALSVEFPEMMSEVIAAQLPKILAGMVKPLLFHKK
Excerpt: (§1) In identifying compounds that would have use in the treatment of SDAT and other diseases characterized by reductions in receptor numbers or synaptic transmission, the inventors have given consideration to the need to identify compounds that would-have the desired effect but would be devoid of any oestrogenic effects, as these would be unacceptable, particularly in male patients. A number of the compounds claimed to have activity in patent application DE 4303214A1 have marked oestrogenic activity and are therefore unacceptable.

aged Sprague-Dawley rats = test: Cognitive function in the Y-maze test in aged rats; assay type: in vivo; settings: 18 mg/kg/day in chow, 3 months intake; rats aged 23 months; FIG. 4
Procedure: Methods: Cognitive function in the Y-maze test
Sprague-Dawley rats aged 23 months (i.e. aged) were divided into aged-control or aged+smilagenin treatment group. Rats aged 3 to 4 months acted as young controls. The treatment group received 18 mg/kg/day of smilagenin in chow. Chow without smilagenin was given to each rat after the chow containing smilagenin had been consumed. Three months later the animals were tested in the Y-maze as follows; an equilateral Y-shaped maze was used composed of three 45 cm arms with copper rods in the floor at the end of each arm which conduct electricity and which were 0.2 cm in diameter, 14 cm in length and with a 1 cm gap between them. There were 15 W signal lights at each end. A safe region was indicated by a light signal in an arm where there was no electricity. If a rat moved to a safe region, a correct reaction was recorded. If it moved to an arm where there was no light, an error reaction was recorded. Following the response, an electric shock was again given after a 5 seconds interval. Twenty trials in total were conducted and the correct reaction rate was obtained: number of correct reactions/(20)/mean response time. Seven such training sessions were completed over seven days. Memory tests were then repeated 15 and 30 days later (=4 months) using the same techniques as just described.

[1] = tested on: muscarinic receptors in PC12 cells; test: Muscarinic receptor number in PC12 cells incubated with β-amyloid (radio-labeled ligand binding); assay type: cell-based
Procedure: Other in vitro assays have been employed to establish the effects of smilagenin. In particular various neuroblastoma cell lines including SKN-SN and SH-SY5Y cells as well as phaechromoacytoma cell lines have been cultured in vitro in the presence of β-amyloid fragments or serum depletion. […] These techniques included Trypan blue exclusion, chemiluminescence and release of lactate dehydrogenase. Of most interest was the observation that incubation of cells, in particular PC12 cells, with β-amyloid reduced the number of muscarinic receptors measured using radio-labeled ligand binding techniques.

oestrogen receptor = test: Oestrogenic activity
Excerpt: as §1

Glucocorticoid receptor = biological target: T2, Glucocorticoid receptor (Homo sapiens, UniProt P04150); test: Activity at steroid receptors: glucocorticoid
T2 sequence (P04150 1-777): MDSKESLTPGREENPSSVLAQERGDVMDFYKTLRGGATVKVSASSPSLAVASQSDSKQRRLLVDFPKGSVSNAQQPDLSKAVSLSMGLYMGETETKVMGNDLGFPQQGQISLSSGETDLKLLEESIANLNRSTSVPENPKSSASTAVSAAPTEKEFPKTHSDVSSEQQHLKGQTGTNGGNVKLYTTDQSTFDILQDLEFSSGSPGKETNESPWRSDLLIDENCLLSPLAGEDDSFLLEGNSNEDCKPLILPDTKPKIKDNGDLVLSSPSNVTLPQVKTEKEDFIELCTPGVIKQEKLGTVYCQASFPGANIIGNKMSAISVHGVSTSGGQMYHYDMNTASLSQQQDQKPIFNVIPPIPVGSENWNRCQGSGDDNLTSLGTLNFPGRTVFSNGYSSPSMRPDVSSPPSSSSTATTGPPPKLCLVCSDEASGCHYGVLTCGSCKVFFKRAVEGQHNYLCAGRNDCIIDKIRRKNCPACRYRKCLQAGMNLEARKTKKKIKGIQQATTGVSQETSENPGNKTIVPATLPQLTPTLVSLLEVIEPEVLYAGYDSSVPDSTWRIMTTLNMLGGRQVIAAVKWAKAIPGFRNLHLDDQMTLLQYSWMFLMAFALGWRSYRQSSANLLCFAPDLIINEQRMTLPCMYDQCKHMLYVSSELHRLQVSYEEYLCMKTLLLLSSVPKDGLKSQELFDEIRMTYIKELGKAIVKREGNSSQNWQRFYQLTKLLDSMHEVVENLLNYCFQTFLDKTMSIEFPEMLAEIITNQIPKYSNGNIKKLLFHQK
Excerpt: as §1

Testosterone receptor = biological target: T3, Testosterone receptor (Homo sapiens, UniProt P10275); test: Activity at steroid receptors: testosterone
T3 sequence (P10275 1-920): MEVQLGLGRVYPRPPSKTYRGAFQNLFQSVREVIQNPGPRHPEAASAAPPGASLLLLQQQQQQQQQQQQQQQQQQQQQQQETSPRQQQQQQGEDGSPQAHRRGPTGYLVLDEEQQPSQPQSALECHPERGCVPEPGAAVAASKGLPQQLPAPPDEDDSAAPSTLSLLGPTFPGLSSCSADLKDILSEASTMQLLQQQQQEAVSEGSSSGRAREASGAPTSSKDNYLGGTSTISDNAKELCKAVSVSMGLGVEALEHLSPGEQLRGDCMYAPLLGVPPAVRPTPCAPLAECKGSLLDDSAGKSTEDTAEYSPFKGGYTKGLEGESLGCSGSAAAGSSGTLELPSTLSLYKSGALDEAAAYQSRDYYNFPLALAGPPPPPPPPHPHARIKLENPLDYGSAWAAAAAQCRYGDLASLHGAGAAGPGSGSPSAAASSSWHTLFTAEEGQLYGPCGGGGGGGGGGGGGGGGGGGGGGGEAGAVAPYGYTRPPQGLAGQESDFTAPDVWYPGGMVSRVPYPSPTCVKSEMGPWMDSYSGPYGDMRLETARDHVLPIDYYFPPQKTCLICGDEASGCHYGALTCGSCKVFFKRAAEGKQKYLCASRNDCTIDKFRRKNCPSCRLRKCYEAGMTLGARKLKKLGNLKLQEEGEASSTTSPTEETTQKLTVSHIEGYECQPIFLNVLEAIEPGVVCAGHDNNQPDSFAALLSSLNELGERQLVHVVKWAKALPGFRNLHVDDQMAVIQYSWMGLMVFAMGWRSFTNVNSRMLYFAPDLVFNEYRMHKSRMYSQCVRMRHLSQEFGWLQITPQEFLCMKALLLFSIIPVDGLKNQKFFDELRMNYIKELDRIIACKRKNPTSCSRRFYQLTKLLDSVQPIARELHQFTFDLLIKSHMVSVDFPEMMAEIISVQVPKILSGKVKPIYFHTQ
Excerpt: as §1

[2] = tested on: muscarinic receptors on cultured cardiac muscle cells; test: Muscarinic receptor expression on cultured neonatal cardiac muscle cells (tritiated QNB binding); assay type: cell-based, Sprague Dawley rats; settings: NS = No significant effect
Procedure: 3. Cultured cardiac muscle cells obtained from neonatal Sprague Dawley rats. The cardiac muscle cells express muscarinic receptors, typically m2. The level of these receptors fails on prolonged culture and the effects of compounds of interest in preventing the fall in receptor numbers was investigated.
Cardiac muscle cells were isolated from the ventricular muscle of neonatal Sprague Dawley rats using standard techniques. Cells were cultured in vitro and muscarinic receptor numbers expressed on cell surfaces membrane fragments after homogenization of cells harvested at various time points were estimated using specific binding of tritiated QNB. […] The experiments were therefore designed to investigate the effects of the various compounds in inhibiting this decline in receptor numbers.

[3] = tested on: recombinant human muscarinic receptors in CHO cells; test: Muscarinic receptor density in CHO cells expressing recombinant human muscarinic receptors ([3H]-QNB); assay type: cell-based; settings: smilagenin at 1 and 10 μM; FIG. 2
Procedure: In a CHO cell line expressing recombinant human muscarinic receptors in vitro, the number of muscarinic receptors tends to decline with time. Smilagenin (1-10 μM) incubated for 72 hours increases muscarinic receptor density.
Effect of smilagenin on muscarinic receptor density in CHO cells expressing recombinant human muscarinic receptors.
Chinese hamster ovary (CHO) cells expressing high levels of receptor (˜2.2 pmoles receptor/mg protein) were cultured in flasks (150 ml) for 24 hours before the start of the experiment. Vehicle (DMSO) and smilagenin (at 1 and 10 μM) were added to the medium for 48 h. The culture medium was discarded, the cells scraped off and resuspended in Hanks solution, centrifuged and m-receptor levels determined by incubating with [^3H]-QNB for 30 min followed by liquid scintillation counting. Protein levels were determined by a micro Lowry method.

[4] = tested on: m2 receptors on CHO cells; test: Expression of m2 receptors on CHO cells transfected with DNA for the m2 receptor (tritiated QNB binding); assay type: cell-based; settings: for Effect on receptor expression - given as % increase compared to control (negative values in brackets): DMSO control, NS = No significant effect
Procedure: 1. Chinese hamster ovary (CHO) cells transfected with the a DNA fragment coding for a muscarinic receptor. The cell line used-for the majority of the experiments was a cell line expressing the m2 receptor.
The-effects of various compounds on the expression of m2 receptors on CHO cells transfected with DNA for the m2 receptor were investigated. Receptor numbers were assayed using tritiated QNB binding and subtracting non-specific binding. Compounds were dissolved in DMSO and DMSO was used as a control. Compounds were tested at a range of final concentrations. Compounds were also tested in the presence and absence of tamoxifen to try to distinguish an oestrogen receptor mediated mechanism. The results are summarized in the Table 2 below, where the compound used in the invention appears in bold, and data on other sapogenins is given for comparative purposes: […]

[5] = tested on: muscarinic (M) receptor in the brain; test: Single point analysis of brain M receptor density in aged rats; assay type: in vivo, Sprague-Dawley rats; settings: 18 mg/kg/day in chow over 3 months; 23-month-old rats; FIG. 3
Procedure: Methods: Single point analysis of brain M receptor density.
Sprague-Dawley rats, 23-month-old, (i.e. aged) were divided into 2 groups, aged-control and aged+smilagenin. Smilagenin (18 mg/kg/day) was mixed in the chow over the 3 month period; Male 4-6 month old rats acted as young controls. At the end of the 3-month treatment period, pairs of treated and control animals were sacrificed by cervical dislocation and the intact brain removed. Single point analysis of brain M receptor density was obtained.

[6] = molar concentration of compound 10^−5

m2 receptors on CHO cells, sequence (P08172 whole entry, the tested form may be a part): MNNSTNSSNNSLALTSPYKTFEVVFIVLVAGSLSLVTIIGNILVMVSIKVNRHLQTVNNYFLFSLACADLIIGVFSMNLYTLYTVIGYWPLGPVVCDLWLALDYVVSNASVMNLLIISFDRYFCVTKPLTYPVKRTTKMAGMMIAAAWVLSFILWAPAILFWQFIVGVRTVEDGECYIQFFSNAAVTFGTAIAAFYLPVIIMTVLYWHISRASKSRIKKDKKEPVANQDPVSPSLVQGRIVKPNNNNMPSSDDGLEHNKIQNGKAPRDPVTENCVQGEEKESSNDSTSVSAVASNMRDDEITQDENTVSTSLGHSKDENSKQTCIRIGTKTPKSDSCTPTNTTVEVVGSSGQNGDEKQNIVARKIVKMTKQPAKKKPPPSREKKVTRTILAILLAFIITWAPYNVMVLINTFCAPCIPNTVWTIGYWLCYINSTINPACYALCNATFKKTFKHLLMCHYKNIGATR
muscarinic receptors on cultured cardiac muscle cells, sequence (P10980 whole entry): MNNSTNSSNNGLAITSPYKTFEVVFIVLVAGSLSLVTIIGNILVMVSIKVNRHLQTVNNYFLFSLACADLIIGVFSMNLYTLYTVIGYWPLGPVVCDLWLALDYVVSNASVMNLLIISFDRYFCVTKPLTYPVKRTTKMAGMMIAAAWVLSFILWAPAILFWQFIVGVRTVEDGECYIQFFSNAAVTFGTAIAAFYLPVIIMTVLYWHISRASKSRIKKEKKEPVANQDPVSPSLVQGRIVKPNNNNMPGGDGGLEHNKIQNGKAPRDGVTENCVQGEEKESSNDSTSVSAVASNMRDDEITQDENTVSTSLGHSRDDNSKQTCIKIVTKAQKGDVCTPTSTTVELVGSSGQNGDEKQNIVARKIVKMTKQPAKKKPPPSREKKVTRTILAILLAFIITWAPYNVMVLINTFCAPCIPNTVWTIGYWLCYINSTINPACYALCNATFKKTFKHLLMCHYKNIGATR

| Molecule | Activity at progesterone receptor (Progesterone receptor) | Cognitive function (learning and memory performance) in Y-maze (aged Sprague-Dawley rats) | Effect on β-amyloid-induced reduction in muscarinic receptor numbers [1] | Oestrogenic activity (oestrogen receptor) | Activity at glucocorticoid receptor (Glucocorticoid receptor) | Activity at testosterone receptor (Testosterone receptor) | Concentration of compound causing a significant increase in number of receptors expressed on neonatal cardiac muscle after 10 days in vitro culture [2] | Effect on muscarinic receptor number/density over the culturing period [3] | Effect on receptor expression - given as % increase compared to control (negative values in brackets) [4, 6] [%] | Effect on receptor expression - given as % increase compared to control (negative values in brackets) ([4]; molar concentration of compound 10^−6) [%] | Effect of tamoxifen on the increase in muscarinic receptor number on CHO cells ([4]; tested in the presence and absence of tamoxifen) | Brain M receptor numbers compared to aged controls [5] |
| --- | --- | --- | --- | --- | --- | --- | --- | --- | --- | --- | --- | --- |
| smilagenin | no activity | reversed the decline in cognitive function | ameliorated | does not display oestrogenic activity | no activity | no activity | 10^−6M | prevents the decrease in muscarinic receptor number in a concentration-dependent manner | 57 | 18 | not antagonized by tamoxifen | increased M receptor numbers |
| Astragaloside | – | – | – | – | – | – | 10^−5M | – | – | – | – | – |
| C[C@@H]1CC[C@@]2(OC1)O[C@H]1C[C@H]3[C@@H]4C[C@@H](O)[C@@]5(O)C[C@@H](O)CC[C@]5(C)[C@H]4CC[C@]3(C)[C@H]1[C@@H]2C [Anzurogenin D, reference compound] | – | – | – | – | – | – | 10^−6M | – | 22 | – | – | – |
